From US8153784B2, “Imaging of enzyme activity” (The General Hospital Corporation, priority 2004, dated 2012)
Blank lines part the entries; values can stand above or below the compound they belong to.

Assays:
endogenous mouse MPO [1] = target: T1, endogenous mouse MPO (Mus musculus, UniProt P11247); assay: LPS induced myositis, MR imaging at 4.7 T; type: in vivo; details: mice with LPS induced myositis
T1 construct: endogenous in cells; host or cells: inflammatory cells recruited by LPS in C57BL6 male mice (Matrigel site in the thigh, or flank muscle myositis)
T1 sequence (P11247 139-718): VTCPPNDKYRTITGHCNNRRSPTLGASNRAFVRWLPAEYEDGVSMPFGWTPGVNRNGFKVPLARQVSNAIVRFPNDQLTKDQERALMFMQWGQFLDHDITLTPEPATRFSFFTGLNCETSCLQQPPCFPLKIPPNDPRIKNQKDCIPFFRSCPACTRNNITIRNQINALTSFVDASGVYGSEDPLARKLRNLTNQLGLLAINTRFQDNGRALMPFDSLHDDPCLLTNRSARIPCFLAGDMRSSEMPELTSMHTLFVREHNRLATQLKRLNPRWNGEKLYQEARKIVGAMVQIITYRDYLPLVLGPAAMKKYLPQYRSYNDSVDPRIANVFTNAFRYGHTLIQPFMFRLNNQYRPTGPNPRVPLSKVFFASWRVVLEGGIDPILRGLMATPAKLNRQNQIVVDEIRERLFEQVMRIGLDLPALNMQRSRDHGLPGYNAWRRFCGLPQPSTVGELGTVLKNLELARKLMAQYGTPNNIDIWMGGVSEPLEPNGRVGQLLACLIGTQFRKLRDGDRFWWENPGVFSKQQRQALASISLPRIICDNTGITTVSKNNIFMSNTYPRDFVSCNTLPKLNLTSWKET
Method: (§1) The MR imaging experiments were performed on a 1.5 T GE Excite scanner and a 4.7 T Bruker Pharmascan scanner. For all MR imaging experiments, precontrast T2-(TR=2000, TE=100, ETL=8, NEX=4, fast spin echo sequence) and T1-weighted images (TR=500, TE=11, NEX=4, spin echo sequence) with fat saturation were initially performed to locate the gels or area of inflammation. The substrates (0.3 mmol/kg) were subsequently injected via the tail vein of the mouse. The mouse was immediately imaged after the injection of the contrast agent using multiple T1-weighted sequences with fat saturation for at least 3 hours.
(§2) Ten-week old C57BL6 male mice were obtained from Jackson Laboratories. A total of 22 mice were used for the study. • 1. MPO/Matrigel imaging experiments: Matrigel™ (Beckton-Dickinson), a […] basement membrane matrix gel was used to immobilize human MPO and glucose oxidase (to supply H2O2 required for detecting MPO oxidative activity, Calbiochem). This was chosen to reflect deposits of human MPO in inflamed tissue in a mouse model. 400 μL of a mixture of Matrigel™ and MEM (Cambrex) was injected slowly into the thighs of each mouse one hour prior to imaging. The right thigh mixture also contained 15 U of MPO and 4 U of glucose oxidase (Calbiochem), while the left thigh mixture contained no enzyme and thus serves as an internal control. […]

endogenous mouse MPO [2] = target: T1, endogenous mouse MPO; assay: LPS/Matrigel experiments, MR imaging; type: in vivo; details: mice; LPS/Matrigel
Method: as §1, §2

[3] = target: T2, human MPO embedded in Matrigel (Homo sapiens, UniProt P05164); assay: MPO/Matrigel implant mouse model, T1-weighted MR imaging; type: in vivo; details: mice, right MPO/Matrigel vs left control, 1.5 T
T2 construct: purchased BioDesign, Inc
T2 sequence (P05164 49-745): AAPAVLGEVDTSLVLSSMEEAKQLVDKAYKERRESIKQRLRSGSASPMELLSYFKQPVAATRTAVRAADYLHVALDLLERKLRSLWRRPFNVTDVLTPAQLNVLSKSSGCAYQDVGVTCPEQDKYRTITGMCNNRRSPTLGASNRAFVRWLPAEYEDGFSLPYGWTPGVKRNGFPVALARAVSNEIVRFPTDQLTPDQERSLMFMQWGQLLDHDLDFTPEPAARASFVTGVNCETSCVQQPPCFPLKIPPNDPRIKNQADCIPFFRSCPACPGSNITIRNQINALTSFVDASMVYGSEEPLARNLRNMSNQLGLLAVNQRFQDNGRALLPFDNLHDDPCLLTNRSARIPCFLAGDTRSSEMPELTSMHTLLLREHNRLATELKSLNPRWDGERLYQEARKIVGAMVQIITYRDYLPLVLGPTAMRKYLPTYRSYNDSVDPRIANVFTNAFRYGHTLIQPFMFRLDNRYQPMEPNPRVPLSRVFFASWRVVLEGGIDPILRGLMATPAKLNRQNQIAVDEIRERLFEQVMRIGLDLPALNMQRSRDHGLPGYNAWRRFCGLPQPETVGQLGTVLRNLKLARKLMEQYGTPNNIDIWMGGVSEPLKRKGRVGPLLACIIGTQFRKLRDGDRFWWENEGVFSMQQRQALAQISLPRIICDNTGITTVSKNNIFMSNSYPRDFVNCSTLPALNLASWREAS
Method: To evaluate the monomeric substrates in vivo, we devised a mouse model that harbored 400 μL of Matrigel basement membrane matrix gel mixed 1:1 by volume with a solution containing 15 U of human MPO and glucose oxidase (as a source of hydrogen peroxide) that was injected into the right flank of the mouse. The left flank was injected with the enzyme-free Matrigel mixture. We subsequently performed T1-weighted MR imaging after the intravenous injection of Gd-DTPA-diSer substrate at the dose of […].
as §1
Ten-week old C57BL6 male mice were obtained from Jackson Laboratories. A total of 22 mice were used for the study. • 1. MPO/Matrigel imaging experiments: Matrigel™ (Beckton-Dickinson), a […] basement membrane matrix gel was used to immobilize human MPO and glucose oxidase (to supply H2O2 required for detecting MPO oxidative activity, Calbiochem). This was chosen to reflect deposits of human MPO in inflamed tissue in a mouse model. 400 μL of a mixture of Matrigel™ and MEM (Cambrex) was injected slowly into the thighs of each mouse one hour prior to imaging. The right thigh mixture also contained 15 U of MPO and 4 U of glucose oxidase (Calbiochem), while the left thigh mixture contained no enzyme and thus serves as an internal control. A total of 15 mice were used (3 mice each for 5-HT-DOTA(Gd), bis-5-HT-DTPA(Gd), bis-5-HT-DTPA-^111In, bis-tyramide-DTPA(Gd), and DTPA(Gd)). • 2. LPS/Matrigel experiments (n=3): This model was developed to induce endogeneous mouse MPO secretion and activation. 200 μL total volume Matrigel containing 10% heparin was injected slowly into the thighs of the mice 4 days prior to imaging. The right-sided mixture also contained E. coli lipopolysaccharide (LPS) at 10 μg/mL. One mouse was sacrificed for immunohistochemistry. • 3. Myositis experiments (n=4): LPS at 100 μg/mL in PBS was injected into each mouse intramuscularly in the right flank to produce myositis. The mice are imaged 24 hours after injection.
For normalized signal intensity measured on T1-weighted images, mean±standard deviation (SD) values were calculated in regions of interest (ROI). Contrast-to-noise (CNR) ratios were computed for each ROI according to the formula

[4] = target: T3, horseradish peroxidase (HRP) (Armoracia rusticana, UniProt P00433); assay: Ga-3 as oxidoreductase reducing substrate, UV-visible spectra with HRP/H2O2; type: biochemical; parameters: purchased Sigma; details: after approximately 2 hours
T3 sequence (P00433 31-338): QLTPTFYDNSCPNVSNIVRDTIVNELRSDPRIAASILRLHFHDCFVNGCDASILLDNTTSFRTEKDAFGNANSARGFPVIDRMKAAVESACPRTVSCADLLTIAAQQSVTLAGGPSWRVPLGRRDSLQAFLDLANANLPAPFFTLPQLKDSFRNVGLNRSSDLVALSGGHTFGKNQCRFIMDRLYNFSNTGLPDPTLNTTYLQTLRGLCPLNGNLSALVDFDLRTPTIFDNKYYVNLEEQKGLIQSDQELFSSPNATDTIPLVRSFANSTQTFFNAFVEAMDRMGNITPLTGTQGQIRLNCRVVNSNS
From the text: (§3) Compound Ga-3 was further tested in vitro as an oxidoreductase reducing substrate. In a preliminary experiment, horseradish peroxidase (HRP), a model oxidoreductase, was used to test the possibility of enzyme-induced oligomerization. […] Well-defined aromatic band centered at 280 nm broadened over the reaction time and extended beyond 330 nm with some residual absorption in the region 350-500 nm. Extension towards the visible range is associated with the extension of the aromatic system as could be expected in the event of oligomerization. After 6 hours no change was observed and the reaction reaches levels close to 90% of conversion after approximately 2 hours. If MPO was used instead of HRP, the obtained results (see FIG. 20C) were similar.

MPO [5] = target: T4, MPO (Homo sapiens, UniProt P05164); assay: Ga-3 as oxidoreductase reducing substrate, UV-visible spectra with MPO; type: biochemical
T4 sequence (P05164 49-745): T2 sequence (P05164 49-745)
From the text: as §3

MPO [6] = target: T4, MPO; assay: SPECT/CT imaging of MPO/Matrigel implants with 67Ga tracer; type: in vivo, mouse
Method: SPECT imaging and biodistribution: A solution of 80-100 μCi of [^67Ga]—I in 200 μl of saline were injected intravenously into mice prepared as follows: ten-week old C57BL6 male mice (Jackson Laboratories) were injected with 400 μL of a mixture of Matrigel™ (Beckton-Dickinson) and MEM (Cambrex) into the thighs of each mouse one hour prior to imaging. The right thigh mixture also contained 15 U of MPO and 4 μg of glucose oxidase (Calbiochem), while the left thigh mixture contained no enzyme to serve as an internal control. Glucose oxidase was included to ensure local generation of hydrogen peroxide. […] Six hours after injection, the animals were sacrificed and biodistribution was determined in major organs. The % dose accumulated per gram of major organs was determined by using a gamma counter.
To test our hypothesis in vivo, we prepared an inflammation model in mice. The model consisted in the subcutaneous implantation (1 hour before radiotracer injection) of Matrigel/MPO/GO mixture in the right thigh of each mouse. The left thigh mixture contained no enzyme and served as internal control. Matrigel is a basement membrane matrix gel that can be used for immobilizing human MPO and peroxide-generating enzyme. After injecting [^67Ga]—I intravenously, SPECT/CT imaging was performed 4 hours later.

[7] = Biodistribution of 67Ga tracer; type: in vivo, mouse; details: mice n=4; 6 hours after the injection
Method: SPECT imaging and biodistribution: A solution of 80-100 μCi of [^67Ga]—I in 200 μl of saline were injected intravenously into mice prepared as follows: ten-week old C57BL6 male mice (Jackson Laboratories) were injected with 400 μL of a mixture of Matrigel™ (Beckton-Dickinson) and MEM (Cambrex) into the thighs of each mouse one hour prior to imaging. The right thigh mixture also contained 15 U of MPO and 4 μg of glucose oxidase (Calbiochem), while the left thigh mixture contained no enzyme to serve as an internal control. Glucose oxidase was included to ensure local generation of hydrogen peroxide. The animals were imaged 3 hours after injection on a high resolution X-SPECT/CT system (Gamma Medica). Six hours after injection, the animals were sacrificed and biodistribution was determined in major organs. The % dose accumulated per gram of major organs was determined by using a gamma counter.

enhancement at 50 minutes after injection (endogenous mouse MPO [1]): significant wash-out of the enhancement
difference in enhancement LPS side vs control (endogenous mouse MPO [2]): no significant difference in enhancement
enhancement of MPO implant compared with control implant [3]: no visual difference or CNR difference
enhancement of MPO implant compared with control implant ([3]; listed as Magnevist): did not show any difference
SMILES: O=C([O-])CN(CCN(CC(=O)[O-])CC(=O)O)CCN(CC(=O)[O-])CC(=O)O.[Gd+3] [DTPA(Gd), reference compound]

conversion [4]: ~90%
result with MPO compared with HRP (MPO [5]): similar
SMILES: CC(=O)N1CCCCCNC(=O)CCC(=O)N2CCCCCNC(=O)CCC(=O)N(CCCCCNC(=O)Cc3c[nH]c4ccc(O)cc34)[O][Ga]([O]1)[O]2 [Ga-3]

difference between right (MPO) and left (control) thigh (MPO [6]; mice, 6 hours after the injection): around 60%
intensity of MPO implant vs control implant (MPO [6]; mouse SPECT/CT fusion images): higher intensity
residual radioactivity in liver [7]: ~1.4%
residual radioactivity in the bowel [7]: ~7.8%
residual radioactivity in the rest of the organs [7]: below 0.5%
SMILES: CC(=O)N1CCCCCNC(=O)CCC(=O)N2CCCCCNC(=O)CCC(=O)N(CCCCCNC(=O)Cc3c[nH]c4ccc(O)cc34)[O][67Ga]([O]1)[O]2 [[^67Ga]-3]
